# Earlier results as cited in patent US20080226653A1, “Inhibition of Platelet Aggregation” (THE UNIVERSITY OF MANITOBA, priority 2006, published 2008).
# Conditions: clinical trials (Patrono et al., 1993)
structure (smiles),measurement,value
"CC(=O)Oc1ccccc1C(=O)O [aspirin, Aspirin]",efficacy in preventing chronic complications in diabetic patients,only limited efficacy
